Where a SMILES comes first, the peptide text is derived from it. Bridges are numbered along the chain shown (N, C = ends). [ ]: non-standard residue; d: D form. The star is where a group is joined. Phe(4-COOH) = N[C@@H](Cc1ccc(C(=O)O)cc1)C(=O)O; Bip = N[C@@H](Cc1ccc(-c2ccccc2)cc1)C(=O)O; Phe(3-Me) = Cc1cccc(C[C@H](N)C(=O)O)c1; 4Pal = N[C@@H](Cc1ccncc1)C(=O)O; Cha = N[C@@H](CC1CCCCC1)C(=O)O; Carboxymethyl = O=C(O)C*; Orn = NCCC[C@H](N)C(=O)O; Dab = NCC[C@H](N)C(=O)O; Dap = NC[C@H](N)C(=O)O
These compounds were tested against T1, human PD-1 / PD-L1-Ig binding on Jurkat cell line over-expressing human PD-1 (Jurkat-PD-1) (Homo sapiens, UniProt Q15116) (assay: Jurkat-PD-1 Cell Binding High-Content Screening Assay (CBA)). Conditions: Jurkat-PD-1 cells, PE-labeled PD-L1-Ig 20 nM final; read-out: Jurkat HPD1_PDL1 IC50.
T1 construct: expressed in transfected cells; host or cells: Jurkat
T1 sequence (Q15116 25-288): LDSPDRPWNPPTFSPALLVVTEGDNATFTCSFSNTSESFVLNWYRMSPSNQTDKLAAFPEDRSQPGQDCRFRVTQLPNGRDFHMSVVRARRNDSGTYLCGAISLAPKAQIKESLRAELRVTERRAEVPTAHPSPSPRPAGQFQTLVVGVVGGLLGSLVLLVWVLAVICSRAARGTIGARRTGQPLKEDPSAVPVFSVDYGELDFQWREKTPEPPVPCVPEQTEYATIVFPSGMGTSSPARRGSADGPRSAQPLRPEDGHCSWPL
Assay type: cell-based
In short: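 Read-out: high-content imaging of PE-tagged PD-L1-Ig bound to Jurkat cells overexpressing human PD-1, after fixation with 4% paraformaldehyde and Hoechst 33342 nuclear staining. Ligand was used at 20 nM final for 1 hour, after a 2 h compound exposure at 37° C in serum-containing DMEM.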
`Cc1cccc(C[C@@H]2NC(=O)[C@H](CC(=O)O)NC(=O)[C@H](Cc3ccc(C(=O)O)cc3)NC(=O)[C@H](Cc3ccncc3)NC(=O)CSC[C@@H](C(=O)N[C@@H](C)C(N)=O)NC(=O)[C@H]([C@@H](C)O)NC(=O)[C@H](C(C)C)NC(=O)[C@H](CC3CCCCC3)NC(=O)[C@H](CCN)NC(=O)[C@@H](CC(C)C)NC(=O)[C@H](CCCN)NC(=O)[C@H](CCC(=O)O)NC(=O)[C@H](Cc3ccc(-c4ccccc4)cc3)NC(=O)[C@H](C(C)C)NC2=O)c1` [Compound 1417] showed an IC50 of 7 nM.
With `Cc1cccc(C[C@@H]2NC(=O)[C@H](CC(=O)O)NC(=O)[C@H](Cc3ccncc3)NC(=O)[C@H](CN)NC(=O)CSC[C@@H](C(=O)N[C@@H](C)C(N)=O)NC(=O)[C@H]([C@@H](C)O)NC(=O)[C@H](C(C)C)NC(=O)[C@H](CC3CCCCC3)NC(=O)[C@H](CCN)NC(=O)[C@@H](CC(C)C)NC(=O)[C@H](CCCN)NC(=O)[C@H](CCC(=O)O)NC(=O)[C@H](Cc3ccc(-c4ccccc4)cc3)NC(=O)[C@H](C(C)C)NC2=O)c1` [Compound 1418] ({CH2CO}-[Dap][4Pal]D[Phe(3-Me)]V[Bip]E[Orn][dL][Dab][Cha]VTCA-NH2; thioether N-14) the IC50 was 8.1 nM.
Compound `Cc1cccc(C[C@@H]2NC(=O)[C@H](CC(=O)O)NC(=O)[C@H](Cc3ccncc3)NC(=O)[C@H](Cc3ccc(OCC(=O)O)cc3)NC(=O)CSC[C@@H](C(=O)N[C@@H](C)C(N)=O)NC(=O)[C@H]([C@@H](C)O)NC(=O)[C@H](C(C)C)NC(=O)[C@H](CC3CCCCC3)NC(=O)[C@H](CCN)NC(=O)[C@@H](CC(C)C)NC(=O)[C@H](CCCN)NC(=O)[C@H](CCC(=O)O)NC(=O)[C@H](Cc3ccc(-c4ccccc4)cc3)NC(=O)[C@H](C(C)C)NC2=O)c1` [Compound 1419] ({CH2CO}-Y(Carboxymethyl)[4Pal]D[Phe(3-Me)]V[Bip]E[Orn][dL][Dab][Cha]VTCA-NH2; thioether N-14) has an IC50 of 7.2 nM.
For `Cc1cccc(C[C@@H]2NC(=O)[C@H](CC(=O)O)NC(=O)[C@H](Cc3ccc(O)cc3)NC(=O)[C@H](CC(N)=O)NC(=O)CSC[C@@H](C(=O)N[C@@H](C)C(N)=O)NC(=O)[C@H]([C@@H](C)O)NC(=O)[C@H](C(C)C)NC(=O)[C@H](CC3CCCCC3)NC(=O)[C@H](CCN)NC(=O)[C@@H](CC(C)C)NC(=O)[C@H](CCCN)NC(=O)[C@H](CCC(=O)O)NC(=O)[C@H](Cc3ccc(-c4ccccc4)cc3)NC(=O)[C@H](C(C)C)NC2=O)c1` [Compound 1420] ({CH2CO}-NYD[Phe(3-Me)]V[Bip]E[Orn][dL][Dab][Cha]VTCA-NH2; thioether N-14), the IC50 was 7.5 nM.
`CC(C)C[C@H]1NC(=O)[C@H](CCCN)NC(=O)[C@H](CCC(=O)O)NC(=O)[C@H](Cc2ccc(-c3ccccc3)cc2)NC(=O)[C@H](C(C)C)NC(=O)[C@H](Cc2c[nH]c3ccccc23)NC(=O)[C@H](CC(=O)O)NC(=O)[C@H](Cc2ccncc2)NC(=O)[C@H](Cc2ccc(OCC(=O)O)cc2)NC(=O)CSC[C@@H](C(=O)N[C@@H](C)C(N)=O)NC(=O)[C@H]([C@@H](C)O)NC(=O)[C@H](C(C)C)NC(=O)[C@H](CC2CCCCC2)NC(=O)[C@H](CCN)NC1=O` [Compound 1423] showed an IC50 of 9.9 nM.
`CC(C)C[C@H]1NC(=O)[C@H](CCCN)NC(=O)[C@H](CCC(=O)O)NC(=O)[C@H](Cc2ccc(-c3ccccc3)cc2)NC(=O)[C@H](C(C)C)NC(=O)[C@H](Cc2c[nH]c3ccccc23)NC(=O)[C@H](CC(=O)O)NC(=O)[C@H](Cc2ccc(O)cc2)NC(=O)[C@H](CC(N)=O)NC(=O)CSC[C@@H](C(=O)N[C@@H](C)C(N)=O)NC(=O)[C@H]([C@@H](C)O)NC(=O)[C@H](C(C)C)NC(=O)[C@H](CC2CCCCC2)NC(=O)[C@H](CCN)NC1=O` [Compound 1424] ({CH2CO}-NYDWV[Bip]E[Orn][dL][Dab][Cha]VTCA-NH2; thioether N-14) showed an IC50 of 14.7 nM.
`CC(C)C[C@H]1NC(=O)[C@H](CCCN)NC(=O)[C@H](CCC(=O)O)NC(=O)[C@H](Cc2ccc(-c3ccccc3)cc2)NC(=O)[C@H](C(C)C)NC(=O)[C@H](Cc2c[nH]c3ccccc23)NC(=O)[C@H](CC(=O)O)NC(=O)[C@H](Cc2ccc(OCC(=O)O)cc2)NC(=O)[C@H](CN)NC(=O)CSC[C@@H](C(=O)N[C@@H](C)C(N)=O)NC(=O)[C@H]([C@@H](C)O)NC(=O)[C@H](C(C)C)NC(=O)[C@H](CC2CCCCC2)NC(=O)[C@H](CCN)NC1=O` [Compound 1425] gave an IC50 of 16.8 nM.
`Cc1cccc(C[C@@H]2NC(=O)[C@H](CC(=O)O)NC(=O)[C@H](Cc3ccc(C(=O)O)cc3)NC(=O)[C@H](Cc3ccc(OCC(=O)O)cc3)NC(=O)CSC[C@@H](C(=O)N[C@@H](C)C(N)=O)NC(=O)[C@H]([C@@H](C)O)NC(=O)[C@H](C(C)C)NC(=O)[C@H](CC3CCCCC3)NC(=O)[C@H](CCN)NC(=O)[C@@H](CC(C)C)NC(=O)[C@H](CCCN)NC(=O)[C@H](CCC(=O)O)NC(=O)[C@H](Cc3ccc(-c4ccccc4)cc3)NC(=O)[C@H](C(C)C)NC2=O)c1` [Compound 1426] showed an IC50 of 23.3 nM.
With `CC(C)C[C@H]1NC(=O)[C@H](CCCN)NC(=O)[C@H](CCC(=O)O)NC(=O)[C@H](Cc2ccc(-c3ccccc3)cc2)NC(=O)[C@H](C(C)C)NC(=O)[C@H](Cc2c[nH]c3ccccc23)NC(=O)[C@H](CC(=O)O)NC(=O)[C@H](Cc2ccc(C(=O)O)cc2)NC(=O)[C@H](Cc2ccc(OCC(=O)O)cc2)NC(=O)CSC[C@@H](C(=O)N[C@@H](C)C(N)=O)NC(=O)[C@H]([C@@H](C)O)NC(=O)[C@H](C(C)C)NC(=O)[C@H](CC2CCCCC2)NC(=O)[C@H](CCN)NC1=O` [Compound 1427] the IC50 was 9.7 nM.
`Cc1cccc(C[C@@H]2NC(=O)[C@H](CC(=O)O)NC(=O)[C@H](Cc3ccc(C(=O)O)cc3)NC(=O)[C@H](Cc3ccncc3)NC(=O)CSC[C@@H](C(=O)N[C@@H](C)C(N)=O)NC(=O)[C@H]([C@@H](C)O)NC(=O)[C@H](C(C)C)NC(=O)[C@H](CC3CCCCC3)NC(=O)[C@H](CCN)NC(=O)[C@@H](Cc3ccccc3)NC(=O)[C@H](CCCN)NC(=O)[C@H](CCC(=O)O)NC(=O)[C@H](Cc3ccc(-c4ccccc4)cc3)NC(=O)[C@H](C(C)C)NC2=O)c1` [Compound 1428] ({CH2CO}-[4Pal][Phe(4-COOH)]D[Phe(3-Me)]V[Bip]E[Orn][dF][Dab][Cha]VTCA-NH2; thioether N-14) was tested, and the IC50 was 18.4 nM.
Work on `Cc1cccc(C[C@@H]2NC(=O)[C@H](CC(=O)O)NC(=O)[C@H](Cc3ccncc3)NC(=O)[C@H](CN)NC(=O)CSC[C@@H](C(=O)N[C@@H](C)C(N)=O)NC(=O)[C@H]([C@@H](C)O)NC(=O)[C@H](C(C)C)NC(=O)[C@H](CC3CCCCC3)NC(=O)[C@H](CCN)NC(=O)[C@@H](Cc3ccccc3)NC(=O)[C@H](CCCN)NC(=O)[C@H](CCC(=O)O)NC(=O)[C@H](Cc3ccc(-c4ccccc4)cc3)NC(=O)[C@H](C(C)C)NC2=O)c1` [Compound 1429] ({CH2CO}-[Dap][4Pal]D[Phe(3-Me)]V[Bip]E[Orn][dF][Dab][Cha]VTCA-NH2; thioether N-14) yielded an IC50 of 9.5 nM.
With `Cc1cccc(C[C@@H]2NC(=O)[C@H](CC(=O)O)NC(=O)[C@H](Cc3ccncc3)NC(=O)[C@H](Cc3ccc(OCC(=O)O)cc3)NC(=O)CSC[C@@H](C(=O)N[C@@H](C)C(N)=O)NC(=O)[C@H]([C@@H](C)O)NC(=O)[C@H](C(C)C)NC(=O)[C@H](CC3CCCCC3)NC(=O)[C@H](CCN)NC(=O)[C@@H](Cc3ccccc3)NC(=O)[C@H](CCCN)NC(=O)[C@H](CCC(=O)O)NC(=O)[C@H](Cc3ccc(-c4ccccc4)cc3)NC(=O)[C@H](C(C)C)NC2=O)c1` [Compound 1430] ({CH2CO}-Y(Carboxymethyl)[4Pal]D[Phe(3-Me)]V[Bip]E[Orn][dF][Dab][Cha]VTCA-NH2; thioether N-14) the IC50 was 10.8 nM.
`Cc1cccc(C[C@@H]2NC(=O)[C@H](CC(=O)O)NC(=O)[C@H](Cc3ccc(O)cc3)NC(=O)[C@H](CC(N)=O)NC(=O)CSC[C@@H](C(=O)N[C@@H](C)C(N)=O)NC(=O)[C@H]([C@@H](C)O)NC(=O)[C@H](C(C)C)NC(=O)[C@H](CC3CCCCC3)NC(=O)[C@H](CCN)NC(=O)[C@@H](Cc3ccccc3)NC(=O)[C@H](CCCN)NC(=O)[C@H](CCC(=O)O)NC(=O)[C@H](Cc3ccc(-c4ccccc4)cc3)NC(=O)[C@H](C(C)C)NC2=O)c1` [Compound 1431] ({CH2CO}-NYD[Phe(3-Me)]V[Bip]E[Orn][dF][Dab][Cha]VTCA-NH2; thioether N-14) was tested, and the IC50 was 11.6 nM.
In the case of `CC(C)[C@@H]1NC(=O)[C@H](Cc2c[nH]c3ccccc23)NC(=O)[C@H](CC(=O)O)NC(=O)[C@H](Cc2ccc(C(=O)O)cc2)NC(=O)[C@H](Cc2ccncc2)NC(=O)CSC[C@@H](C(=O)N[C@@H](C)C(N)=O)NC(=O)[C@H]([C@@H](C)O)NC(=O)[C@H](C(C)C)NC(=O)[C@H](CC2CCCCC2)NC(=O)[C@H](CCN)NC(=O)[C@@H](Cc2ccccc2)NC(=O)[C@H](CCCN)NC(=O)[C@H](CCC(=O)O)NC(=O)[C@H](Cc2ccc(-c3ccccc3)cc2)NC1=O` [Compound 1432] ({CH2CO}-[4Pal][Phe(4-COOH)]DWV[Bip]E[Orn][dF][Dab][Cha]VTCA-NH2; thioether N-14), the IC50 is reported as 17.4 nM.
`CC(C)[C@@H]1NC(=O)[C@H](Cc2c[nH]c3ccccc23)NC(=O)[C@H](CC(=O)O)NC(=O)[C@H](Cc2ccncc2)NC(=O)[C@H](CN)NC(=O)CSC[C@@H](C(=O)N[C@@H](C)C(N)=O)NC(=O)[C@H]([C@@H](C)O)NC(=O)[C@H](C(C)C)NC(=O)[C@H](CC2CCCCC2)NC(=O)[C@H](CCN)NC(=O)[C@@H](Cc2ccccc2)NC(=O)[C@H](CCCN)NC(=O)[C@H](CCC(=O)O)NC(=O)[C@H](Cc2ccc(-c3ccccc3)cc2)NC1=O` [Compound 1433] ({CH2CO}-[Dap][4Pal]DWV[Bip]E[Orn][dF][Dab][Cha]VTCA-NH2; thioether N-14) gave an IC50 of 40.5 nM.
